Assay results published in PubChem BioAssay (NCI).
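Results reflect a 48-hour exposure of cells in 96-well plates to compound at five concentrations. GI50 is the concentration that inhibits growth by half. The concentration for full growth arrest is given as TGI.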

How the values were obtained:
Test in all cases: NCI tumour cell line growth inhibition, 48 h
786-0 renal = tested on: 786-0 renal
A498 renal = tested on: A498 renal
A549 NSCLC = tested on: A549 NSCLC
ACHN renal = tested on: ACHN renal
BT-549 breast = tested on: BT-549 breast
CAKI-1 renal = tested on: CAKI-1 renal
CCRF-CEM leukemia = tested on: CCRF-CEM leukemia
COLO 205 colon = tested on: COLO 205 colon
DU-145 prostate = tested on: DU-145 prostate
EKVX NSCLC = tested on: EKVX NSCLC
HCC-2998 colon = tested on: HCC-2998 colon
HCT-116 colon = tested on: HCT-116 colon
HCT-15 colon = tested on: HCT-15 colon
HL-60(TB) leukemia = tested on: HL-60(TB) leukemia
HOP-62 NSCLC = tested on: HOP-62 NSCLC
HOP-92 NSCLC = tested on: HOP-92 NSCLC
HS 578T breast = tested on: HS 578T breast
HT29 colon = tested on: HT29 colon
IGROV1 ovarian = tested on: IGROV1 ovarian
K-562 leukemia = tested on: K-562 leukemia
KM12 colon = tested on: KM12 colon
LOX IMVI melanoma = tested on: LOX IMVI melanoma
M14 melanoma = tested on: M14 melanoma
MALME-3M melanoma = tested on: MALME-3M melanoma
MCF7 breast = tested on: MCF7 breast
MDA-MB-231 breast = tested on: MDA-MB-231 breast
MDA-MB-435 = tested on: MDA-MB-435
MOLT-4 leukemia = tested on: MOLT-4 leukemia
NCI-H226 lung = tested on: NCI-H226 lung
NCI-H23 lung = tested on: NCI-H23 lung
NCI-H460 lung = tested on: NCI-H460 lung
NCI-H522 lung = tested on: NCI-H522 lung
NCI/ADR-RES ovarian = tested on: NCI/ADR-RES ovarian
OVCAR-3 ovarian = tested on: OVCAR-3 ovarian
OVCAR-4 ovarian = tested on: OVCAR-4 ovarian
OVCAR-5 ovarian = tested on: OVCAR-5 ovarian
OVCAR-8 ovarian = tested on: OVCAR-8 ovarian
PC-3 prostate = tested on: PC-3 prostate
RPMI-8226 leukemia = tested on: RPMI-8226 leukemia
RXF 393 renal = tested on: RXF 393 renal
SF-268 CNS = tested on: SF-268 CNS
SF-295 CNS = tested on: SF-295 CNS
SF-539 CNS = tested on: SF-539 CNS
SK-MEL-2 melanoma = tested on: SK-MEL-2 melanoma
SK-MEL-28 melanoma = tested on: SK-MEL-28 melanoma
SK-MEL-5 melanoma = tested on: SK-MEL-5 melanoma
SK-OV-3 ovarian = tested on: SK-OV-3 ovarian
SN12C renal = tested on: SN12C renal
SNB-19 CNS = tested on: SNB-19 CNS
SNB-75 CNS = tested on: SNB-75 CNS
SR leukemia = tested on: SR leukemia
SW-620 colon = tested on: SW-620 colon
T-47D breast = tested on: T-47D breast
TK-10 renal = tested on: TK-10 renal
U251 CNS = tested on: U251 CNS
UACC-257 melanoma = tested on: UACC-257 melanoma
UACC-62 melanoma = tested on: UACC-62 melanoma
UO-31 renal = tested on: UO-31 renal

For `CCCCCCCC(=O)SCC/C=C/[C@@H]1CC(=O)NCc2cccc(n2)CN(Cc2ccc3ccccc3c2)CC(=O)N[C@@H](C(C)C)C(=O)O1`, the GI50 (786-0 renal) was greater than 100 µM, the TGI (786-0 renal) was greater than 100 µM and the GI50 (A498 renal) was 29.5 µM. The TGI (A498 renal) was 88.3 µM, the GI50 (A549 NSCLC) was greater than 100 µM and the TGI (A549 NSCLC) was greater than 100 µM. It also gave a GI50 (ACHN renal) of 45.3 µM, a TGI (ACHN renal) greater than 100 µM and a GI50 (BT-549 breast) greater than 100 µM. For the same molecule, the TGI (BT-549 breast) was greater than 100 µM, the GI50 (CAKI-1 renal) was greater than 100 µM and the TGI (CAKI-1 renal) was greater than 100 µM. For the same molecule, the GI50 (CCRF-CEM leukemia) was 37.9 µM, the TGI (CCRF-CEM leukemia) was greater than 100 µM and the GI50 (COLO 205 colon) was 61.6 µM. For the same molecule, the TGI (COLO 205 colon) was greater than 100 µM, the GI50 (DU-145 prostate) was 94.1 µM and the TGI (DU-145 prostate) was greater than 100 µM. The GI50 (EKVX NSCLC) was greater than 100 µM, the TGI (EKVX NSCLC) was greater than 100 µM and the GI50 (HCC-2998 colon) was greater than 100 µM. The TGI (HCC-2998 colon) was greater than 100 µM, the GI50 (HCT-116 colon) was 26.5 µM and the TGI (HCT-116 colon) was greater than 100 µM. It also gave a GI50 (HCT-15 colon) of 89.3 µM, a TGI (HCT-15 colon) greater than 100 µM and a GI50 (HL-60(TB) leukemia) of 48 µM. The TGI (HL-60(TB) leukemia) was greater than 100 µM, the GI50 (HOP-62 NSCLC) was 39.2 µM and the TGI (HOP-62 NSCLC) was greater than 100 µM. For the same molecule, the GI50 (HOP-92 NSCLC) was 56.2 µM, the TGI (HOP-92 NSCLC) was greater than 100 µM and the GI50 (HS 578T breast) was 46 µM. For the same molecule, the TGI (HS 578T breast) was greater than 100 µM, the GI50 (HT29 colon) was 32.2 µM and the TGI (HT29 colon) was greater than 100 µM. The GI50 (IGROV1 ovarian) was 44.4 µM, the TGI (IGROV1 ovarian) was greater than 100 µM and the GI50 (K-562 leukemia) was 59.4 µM. For the same molecule, the TGI (K-562 leukemia) was greater than 100 µM, the GI50 (KM12 colon) was 42.3 µM and the TGI (KM12 colon) was greater than 100 µM. For the same molecule, the GI50 (LOX IMVI melanoma) was 35.1 µM, the TGI (LOX IMVI melanoma) was greater than 100 µM and the GI50 (M14 melanoma) was 44.3 µM. For the same molecule, the TGI (M14 melanoma) was greater than 100 µM, the GI50 (MALME-3M melanoma) was 23.8 µM and the TGI (MALME-3M melanoma) was greater than 100 µM. The GI50 (MCF7 breast) was 40 µM, the TGI (MCF7 breast) was greater than 100 µM and the GI50 (MDA-MB-231 breast) was 41.4 µM. It also gave a TGI (MDA-MB-231 breast) greater than 100 µM, a GI50 (MDA-MB-435) of 39.7 µM and a TGI (MDA-MB-435) greater than 100 µM. The GI50 (MOLT-4 leukemia) was 30.9 µM, the TGI (MOLT-4 leukemia) was greater than 100 µM and the GI50 (NCI-H226 lung) was greater than 100 µM. It also gave a TGI (NCI-H226 lung) greater than 100 µM, a GI50 (NCI-H23 lung) greater than 100 µM and a TGI (NCI-H23 lung) greater than 100 µM. For the same molecule, the GI50 (NCI-H460 lung) was 43.9 µM, the TGI (NCI-H460 lung) was greater than 100 µM and the GI50 (NCI-H522 lung) was 84.3 µM. The TGI (NCI-H522 lung) was greater than 100 µM, the GI50 (NCI/ADR-RES ovarian) was 46.4 µM and the TGI (NCI/ADR-RES ovarian) was greater than 100 µM. For the same molecule, the GI50 (OVCAR-3 ovarian) was 74.3 µM, the TGI (OVCAR-3 ovarian) was greater than 100 µM and the GI50 (OVCAR-4 ovarian) was greater than 100 µM. For the same molecule, the TGI (OVCAR-4 ovarian) was greater than 100 µM, the GI50 (OVCAR-5 ovarian) was greater than 100 µM and the TGI (OVCAR-5 ovarian) was greater than 100 µM. The GI50 (OVCAR-8 ovarian) was 87 µM, the TGI (OVCAR-8 ovarian) was greater than 100 µM and the GI50 (PC-3 prostate) was 62.4 µM. For the same molecule, the TGI (PC-3 prostate) was greater than 100 µM, the GI50 (RPMI-8226 leukemia) was greater than 100 µM and the TGI (RPMI-8226 leukemia) was greater than 100 µM. For the same molecule, the GI50 (RXF 393 renal) was 42.2 µM, the TGI (RXF 393 renal) was greater than 100 µM and the GI50 (SF-268 CNS) was 93.8 µM. The TGI (SF-268 CNS) was greater than 100 µM, the GI50 (SF-295 CNS) was 41.4 µM and the TGI (SF-295 CNS) was greater than 100 µM. It also gave a GI50 (SF-539 CNS) greater than 100 µM, a TGI (SF-539 CNS) greater than 100 µM and a GI50 (SK-MEL-2 melanoma) of 92.4 µM. For the same molecule, the TGI (SK-MEL-2 melanoma) was greater than 100 µM, the GI50 (SK-MEL-28 melanoma) was 47 µM and the TGI (SK-MEL-28 melanoma) was greater than 100 µM. For the same molecule, the GI50 (SK-MEL-5 melanoma) was 36.2 µM, the TGI (SK-MEL-5 melanoma) was greater than 100 µM and the GI50 (SK-OV-3 ovarian) was 40 µM. For the same molecule, the TGI (SK-OV-3 ovarian) was greater than 100 µM, the GI50 (SN12C renal) was greater than 100 µM and the TGI (SN12C renal) was greater than 100 µM. For the same molecule, the GI50 (SNB-19 CNS) was greater than 100 µM, the TGI (SNB-19 CNS) was greater than 100 µM and the GI50 (SNB-75 CNS) was 27.9 µM. It also gave a TGI (SNB-75 CNS) greater than 100 µM, a GI50 (SR leukemia) of 22.9 µM and a TGI (SR leukemia) greater than 100 µM. It also gave a GI50 (SW-620 colon) greater than 100 µM, a TGI (SW-620 colon) greater than 100 µM and a GI50 (T-47D breast) greater than 100 µM. For the same molecule, the TGI (T-47D breast) was greater than 100 µM, the GI50 (TK-10 renal) was 18.2 µM and the TGI (TK-10 renal) was greater than 100 µM. It also gave a GI50 (U251 CNS) of 98.2 µM, a TGI (U251 CNS) greater than 100 µM and a GI50 (UACC-257 melanoma) of 88.9 µM. For the same molecule, the TGI (UACC-257 melanoma) was greater than 100 µM, the GI50 (UACC-62 melanoma) was 51.6 µM and the TGI (UACC-62 melanoma) was greater than 100 µM. The GI50 (UO-31 renal) was 50 µM and the TGI (UO-31 renal) was greater than 100 µM.
